One assay concerns 80S14 (p21-deficient) cells. Briefly: Cytotoxicity assay using isogenic cell lines: IC50 in 80S14 (p21-deficient) cells, SRB. Format: cell-based, human. The following applies: Homo sapiens, 80S14, 120 h, read-out: IC50 for 80SI4 (uM). Summed up:
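80S14 (p21-deficient) cells seeded at 12,000 cells/well overnight, then exposed 5 days at 37 °C to serial dilutions (5 pM–50 μM or 170 pg/ml–10 μg/ml). TCA-fixed, sulforhodamine B-stained, absorbance at 560 nm; IC50 taken from cytotoxicity curves versus untreated controls.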
Take `C=CC(C)OC(=O)Nc1cccc(-c2ccnc3c(C(=O)c4cccs4)cnn23)c1` (stereo not drawn) [Example 182, 1-methylprop-2-enyl 3-[3-(thien-2-ylcarbonyl)pyrazolo[1,5-a]pyrimidin-7-yl]phenylcarbamate]: the IC50 is under 1 µM.
For `C#CCCOC(=O)Nc1cccc(-c2ccnc3c(C(=O)c4cccs4)cnn23)c1` [Example 193, but-3-ynyl 3-[3-(thien-2-ylcarbonyl)pyrazolo[1,5-a]pyrimidin-7-yl]phenylcarbamate], the IC50 is under 1 µM.

The assay is the same for the next values; noted with them: Homo sapiens, 120 h; 80S14 (p21-deficient) cells, 5 days, SRB; class symbols; read-out: IC50 for 80S14.
Take `O=C(c1cccs1)c1cnn2c(-c3cccc(C(F)(F)F)c3)ccnc12` [Example 223, [7-(3-Trifluoromethylphenyl)pyrazolo[1,5-a]-pyrimidin-3-yl}-2-thienyl-methanone]: the IC50 fell in the range of 1 to 10 µM.
The same measure, in the same setting: as for `O=C(c1cccs1)c1cnn2c(-c3cccc(F)c3)ccnc12` [Example 225, [7-(3-Fluorophenyl)pyrazolo[1,5-a]-pyrimidin-3-yl}-2-thienyl-methanone], the figure is 10 to 50 µM.
`O=C(c1ccco1)c1cnn2c(-c3cccc(N4CCCCC4=O)c3)ccnc12` [Example 226, 1-[3-[3-(2-Furanylcarbonyl)pyrazolo-[1,5-a]pyrimidin-7-yl]phenyl}-2-piperidinone]: the IC50 is 10 to 50 µM.
As for `O=C(c1ccccc1)c1cnn2c(-c3cccc(N4CCCCC4=O)c3)ccnc12` [Example 227, 1-[3-(3-Benzoylpyrazolo[1,5-a]-pyrimidin-7-yl)phenyl]-2-piperidinone], the half-inhibitory concentration (IC50) is 10 to 50 µM.
In the case of `O=C(c1ccco1)c1cnn2c(-c3cccc(N4CCCC4=O)c3)ccnc12` [Example 228, 1-[3-[3-(2-Furanylcarbonyl)pyrazolo-[1,5-a]pyrimidin-7-yl]phenyl]-2-pyrrolidinone], the IC50 lay in the range of 10 to 50 µM.
On the same count and under the same terms, as for `O=C(c1ccccc1)c1cnn2c(-c3cccc(N4CCCC4=O)c3)ccnc12` [Example 229, 1-[3-(3-Benzoylpyrazolo[1,5-a]-pyrimidin-7-yl)phenyl]-2-pyrrolidinone], the figure is 10 to 50 µM; as for `O=C(c1ccccc1)c1cnn2c(-c3cccc(NC(=O)C4CC4)c3)ccnc12` [Example 230, N-[3-(3-Benzoylpyrazolo-[1,5-a]pyrimidin-7-yl)phenyl]-cyclopropanecarboxamide], 1 to 10 µM.
In the case of `CNc1cccc(-c2ccnc3c(C(=O)c4ccccc4)cnn23)c1` [Example 231, [7-[3-(Methylamino)phenyl]pyrazolo[1,5-a]-pyrimidin-3-yl}phenyl-methanone], the 50% inhibitory concentration (IC50) lay within 10 to 50 µM.
For `CN(C(=O)C1CCC1)c1cccc(-c2ccnc3c(C(=O)c4ccccc4)cnn23)c1` [Example 232, N-[3-(3-Benzoylpyrazolo-[1,5-a]pyrimidin-7-yl)phenyl]-N-methylcyclobutanecarboxamide], the IC50 lay in the range of 10 to 50 µM.
Regarding `CN(C(=O)C1CCC1)c1cccc(-c2ccnc3c(C(=O)c4ccco4)cnn23)c1` [Example 233, N-[3-[3-(2-Furanylcarbonyl)-pyrazolo[1,5-a]pyrimidin-7-yl]phenyl}-N-methyl-cyclobutanecarboxamide], the IC50 is 10 to 50 µM.

Still in this assay, the particulars now being: Homo sapiens, 120 h; 80S14 p21-deficient cells, 5 days incubation, SRB; read-out: IC50 for 80SI4.
Take `O=C(Nc1cccc(-c2ccnc3c(C(=O)c4cccs4)cnn23)c1)OCCc1ccsc1` [Example 179, 2-thien-3-ylethyl 3-[3-(thien-2-ylcarbonyl)pyrazolo[1,5-a]pyrimidin-7-yl]phenylcarbamate]: the IC50 is 1 to 10 µM.
The same measure, in the same setting: the result for `O=C(Nc1cccc(-c2ccnc3c(C(=O)c4cccs4)cnn23)c1)OCCN1CCCCC1` [Example 180, 2-piperidin-1-ylethyl 3-[3-(thien-2-ylcarbonyl)pyrazolo[1,5-a]pyrimidin-7-yl]phenylcarbamate] reads 1 to 10 µM; that for `O=C(Nc1cccc(-c2ccnc3c(C(=O)c4cccs4)cnn23)c1)OCCN1CCOCC1` [Example 181, 2-morpholin-4-ylethyl 3-[3-(thien-2-ylcarbonyl)pyrazolo[1,5-a]pyrimidin-7-yl]phenylcarbamate], under 1 µM.
On the same count and under the same terms, the result for `C#CCC(C)OC(=O)Nc1cccc(-c2ccnc3c(C(=O)c4cccs4)cnn23)c1` (stereo not drawn) [Example 183, 1-methylbut-3-ynyl 3-[3-(thien-2-ylcarbonyl)pyrazolo[1,5-a]pyrimidin-7-yl]phenylcarbamate] reads under 1 µM.
The same measure, in the same setting: as for `CCC(OC(=O)Nc1cccc(-c2ccnc3c(C(=O)c4cccs4)cnn23)c1)C(C)C` (stereo not drawn) [Example 184, 1-ethyl-2-methylpropyl 3-[3-(thien-2-ylcarbonyl)pyrazolo[1,5-a]pyrimidin-7-yl]phenylcarbamate], the figure is 1 to 10 µM; as for `CC(C)CC(C)OC(=O)Nc1cccc(-c2ccnc3c(C(=O)c4cccs4)cnn23)c1` (stereo not drawn) [Example 185, 1,3-dimethylbutyl3-[3-(thien-2-ylcarbonyl)pyrazolo[1,5-a]pyrimidin-7-yl]phenylcarbamate], 1 to 10 µM; as for `CCC(CC)OC(=O)Nc1cccc(-c2ccnc3c(C(=O)c4cccs4)cnn23)c1` [Example 186, 1-ethylpropyl 3-[3-(thien-2-ylcarbonyl)pyrazolo[1,5-a]pyrimidin-7-yl]phenylcarbamate], under 1 µM.
Take `CC1CC1COC(=O)Nc1cccc(-c2ccnc3c(C(=O)c4cccs4)cnn23)c1` (stereo not drawn) [Example 187, (2-methylcyclopropyl)methyl 3-[3-(thien-2-ylcarbonyl)pyrazolo[1,5-a]pyrimidin-7-yl]phenylcarbamate]: the IC50 is under 1 µM.
Same read-out and setting: the result for `CC1CCC(OC(=O)Nc2cccc(-c3ccnc4c(C(=O)c5cccs5)cnn34)c2)C1` (stereo not drawn) [Example 188, 3-methylcyclopentyl 3-[3-(thien-2-ylcarbonyl)pyrazolo[1,5-a]pyrimidin-7-yl]phenylcarbamate] reads under 1 µM; that for `C=CCC(C)OC(=O)Nc1cccc(-c2ccnc3c(C(=O)c4cccs4)cnn23)c1` (stereo not drawn) [Example 189, 1-methylbut-3-enyl 3-[3-(thien-2-ylcarbonyl)pyrazolo[1,5-a]pyrimidin-7-yl]phenylcarbamate], under 1 µM; that for `CC(OC(=O)Nc1cccc(-c2ccnc3c(C(=O)c4cccs4)cnn23)c1)C1CC1` (stereo not drawn) [Example 190, 1-cyclopropylethyl 3-[3-(thien-2-ylcarbonyl)pyrazolo[1,5-a]pyrimidin-7-yl]phenylcarbamate], under 1 µM.
Regarding `CC(C)C(C)OC(=O)Nc1cccc(-c2ccnc3c(C(=O)c4cccs4)cnn23)c1` (stereo not drawn) [Example 191, 1,2-dimethylpropyl 3-[3-(thien-2-ylcarbonyl)pyrazolo[1,5-a]pyrimidin-7-yl]phenylcarbamate], the IC50 was under 1 µM.
In the case of `CCCC(OC(=O)Nc1cccc(-c2ccnc3c(C(=O)c4cccs4)cnn23)c1)C(C)C` (stereo not drawn) [Example 192, 1-isopropylbutyl 3-[3-(thien-2-ylcarbonyl)pyrazolo[1,5-a]pyrimidin-7-yl]phenylcarbamate], the IC50 lay in the range of 1 to 10 µM.
Take `CCCCOC(=O)Nc1cccc(-c2c(C)cnc3c(C(=O)c4cccs4)cnn23)c1` [Example 209, butyl 3-[6-methyl-3-(thien-2-ylcarbonyl)pyrazolo[1,5-a]pyrimidin-7-yl]phenylcarbamate]: the IC50 fell in the range of 10 to 50 µM.
The same measure, in the same setting: the result for `C=CCOC(=O)Nc1cccc(-c2c(C)cnc3c(C(=O)c4cccs4)cnn23)c1` [Example 210, allyl 3-[6-methyl-3-(thien-2-ylcarbonyl)pyrazolo[1,5-a]pyrimidin-7-yl]phenylcarbamate] reads 10 to 50 µM.
As to `Cc1cnc2c(C(=O)c3cccs3)cnn2c1-c1cccc(NC(=O)OCCCl)c1` [Example 212, 2-chloroethyl 3-[6-methyl-3-(thien-2-ylcarbonyl)pyrazolo[1,5-a]pyrimidin-7-yl]phenylcarbamate], the half-maximal inhibitory concentration (IC50) lay in the range of 10 to 50 µM.
On the same count and under the same terms, as for `C=CCCOC(=O)Nc1cccc(-c2c(C)cnc3c(C(=O)c4cccs4)cnn23)c1` [Example 213, but-3-enyl 3-[6-methyl-3-(thien-2-ylcarbonyl)pyrazolo[1,5-a]pyrimidin-7-yl]phenylcarbamate], the figure is 10 to 50 µM.
With `Cc1cnc2c(C(=O)c3cccs3)cnn2c1-c1cccc(NC(=O)CC(C)C)c1` [Example 215, 3-methyl-N-{3-[6-methyl-3-(thien-2-ylcarbonyl)pyrazolo[1,5-a]pyrimidin-7-yl]phenyl}butanamide], the concentration for half-maximal inhibition (IC50) was in the range of 10 to 50 µM.
Still for that read-out and setting: as for `Cc1cnc2c(C(=O)c3cccs3)cnn2c1-c1cccc(NC(=O)c2ccccc2)c1` [Example 216, N-{3-[6-methyl-3-(thien-2-ylcarbonyl)pyrazolo[1,5-a]pyrimidin-7-yl]phenyl}benzamide], the figure is 10 to 50 µM; as for `Cc1cnc2c(C(=O)c3cccs3)cnn2c1-c1cccc(NC(=O)C2CCCC2)c1` [Example 218, N-{3-[6-methyl-3-(thien-2-ylcarbonyl)pyrazolo[1,5-a]pyrimidin-7-yl]phenyl}cyclopentanecarboxamide], 10 to 50 µM; as for `Cc1cnc2c(C(=O)c3cccs3)cnn2c1-c1cccc(NC(=O)Cc2cccs2)c1` [Example 219, N-{3-[6-methyl-3-(thien-2-ylcarbonyl)pyrazolo[1,5-a]pyrimidin-7-yl]phenyl}-2-thien-2-ylacetamide], 10 to 50 µM.
Take `Cc1cnc2c(C(=O)c3cccs3)cnn2c1-c1cccc(NC(=O)c2cccnc2)c1` [Example 220, N-{3-[6-methyl-3-(thien-2-ylcarbonyl)pyrazolo[1,5-a]pyrimidin-7-yl]phenyl}nicotinamide]: the IC50 is 10 to 50 µM.
Take `CCCCNC(=O)Nc1cccc(-c2c(C)cnc3c(C(=O)c4cccs4)cnn23)c1` [Example 221, N-butyl-N′-{3-[6-methyl-3-(thien-2-ylcarbonyl)pyrazolo[1,5-a]pyrimidin-7-yl]phenyl}urea]: the IC50 lay within 10 to 50 µM.
For `Cc1cnc2c(C(=O)c3cccs3)cnn2c1-c1cccc(NC(=O)NC(C)C)c1` [Example 222, N-isopropyl-N′-{3-[6-methyl-3-(thien-2-ylcarbonyl)pyrazolo[1,5-a]pyrimidin-7-yl]phenyl}urea], the IC50 fell in the range of 10 to 50 µM.

For the origin of these results see patent US20060063784A1, “Method of using substituted pyrazolo [1,5-a] pyrimidines” (priority 2004, published 2006).
